Entries after “also recorded” stand apart in the source; their conditions may differ. Read-outs that look alike come from different tables or passages of the source. Where a SMILES comes first, the peptide text is derived from it. [ ]: non-standard residue; d: D form. The star is where a group is joined. Nle = CCCC[C@H](N)C(=O)O; Cbz = O=C(OCc1ccccc1)*
Columns and labels:
APP [1] = experiment: Western blot analysis of APP C-terminal fragments (C99, C83, C470, ~55/~85-kDa CTFs) in AC29 cells stably transfected with APP; assay type: cell-based, human; parameters: steady state levels of C99 / APP-CTF levels (C99, C83, C470) compared with ALLN results: dose or concentration left out as unconfirmed
Method: Wild-type (WT) and cholesterol mutant (AC29 and 25RA) CHO cell lines were grown in Dulbecco's Modified Eagle Medium (DMEM) and Nutrient Mixture F-12 Ham (Sigma-Aldrich, St. Louis, Mo.), respectively. Media were supplemented with 10% (v/v) FBS (Atlanta Biologicals, Norcross, Ga.), 1% (v/v) L-Glutamine-Penicillin-Streptomycin solution (Sigma-Aldrich), and 0.4% (v/v) G418 Sulfate (Calbiochem, La Jolla, Calif.) as selection marker for cells stably transfected with cDNA constructs expressing APP751 or APP(ES/AA), and hygromycin for […]-[…] in a […] TOPO expression vector (Invitrogen, Carlsbad, Calif.). Cells were cultured at 37° C. in a water-saturated air/CO2 atmosphere. The following antibodies against APP were used throughout this study: 22C11 (monoclonal, against N-terminus; Chemicon International, Temecula, Calif.); 369 (monoclonal, against C-terminus; generous gift from Dr. Sam Gandy, Farber Institute for Neuroscience, Thomas Jefferson University, Philadelphia, Pa.); C7 and C8 (against C-terminus; generous gift from Dr. Dennis J. Selkoe, Harvard Medical School, Boston, Mass.); 4G8 (monoclonal, against […]β; Endogen, Woburn, Mass.); 6E10 (monoclonal, against residues 1-17 of Aβ; Senetek, St. Louis, Mo.). Antibodies against calreticulin (ER marker), GM130 (Golgi marker), and EEA-1 (early endosomes) were obtained from StressGen Biotechnologies Corp. (Victoria BC, Canada) and Transduction Laboratories (Lexington, Ky.). Anti-V5 antibody was from Invitrogen (Carlsbad, Calif.). Additional materials used in this study include the γ-secretase inhibitor DAPT (generous gift from Dr. Rudolph E. Tanzi, Massachusetts General Hospital, Charlestown, Mass.), the β-secretase inhibitor Z-VLL-CHO (Calbiochem, La Jolla, Calif.), ALLN (Calbiochem), lactacystin (Sigma-Aldrich), ammonium chloride (Sigma-Aldrich), chloroquine (Sigma-Aldrich), methyl-(3-cyclodextrin (Sigma-Aldrich), and mevastatin (Sigma).

AC29 cells [2] = experiment: Cholesterol determinations (intracellular FC and CE pools); assay type: cell-based; parameters: cholesterol levels: dose or concentration left out as unconfirmed; conditions: AC29 cells stably transfected with APP
Method: For the determinations of intracellular pools of FC and CE, cells were first incubated ad equilibrium (for 3 days) in the presence of [^14C]Acetic acid (57.0 mCi/mmol) (Amersham Life Science, Elk Grove, Ill.), then washed twice in PBS and extracted in chloroform/methanol (2:1; v/v). The chloroform phase was dried, resuspended again in chloroform, and applied with standards to a Silica Gel-G (EM Science, Gibbstown, N.J.) Thin Layer Chromatography (TLC). Plates were developed in hexane/ethyl ether/acetic acid (87:20:1, v/v) and visualized with […]. Spots were scraped and counted in a liquid scintillation counter.

AC29 cells [3] = experiment: Cell viability by release of lactate-dehydrogenase (LDH) into the media; assay type: cell-based; conditions: mβ-CD for 24 hours
Method: To establish whether the generation of the 55- and 85-kDa APP-CTFs was affected by FC in the absence of changes in CEs, we depleted AC29 cells of cholesterol using a combination of methyl β-cyclodextrin (m#-CD), a sterol-binding molecule, and mevastatin, an HMG-CoA reductase inhibitor. In our studies, mβ-CD was used for 24 hours to allow for cellular cholesterol to reach equilibrium. Cell viability was not affected, as assessed by the release of the cytosolic enzyme lactate-dehydrogenase (LDH) into the media. […] However, it is important to note that normalized FC in AC29 cells only recovered 50% of the Aβ secreted by WT CHO cells (FIG. 2B), the other 50% still missing presumably due to the absence of CE synthesis in these cells. Both ˜55- and ˜85-kDa APP-CTFs were undetectable after successful normalization of FC (FIG. 2C).

APP [4] = target: APP (Homo sapiens, UniProt P05067); experiment: In vitro assays of APP degradation by recombinant HtrA2; assay type: biochemical
APP (Homo sapiens, UniProt P05067), sequence (P05067 18-770): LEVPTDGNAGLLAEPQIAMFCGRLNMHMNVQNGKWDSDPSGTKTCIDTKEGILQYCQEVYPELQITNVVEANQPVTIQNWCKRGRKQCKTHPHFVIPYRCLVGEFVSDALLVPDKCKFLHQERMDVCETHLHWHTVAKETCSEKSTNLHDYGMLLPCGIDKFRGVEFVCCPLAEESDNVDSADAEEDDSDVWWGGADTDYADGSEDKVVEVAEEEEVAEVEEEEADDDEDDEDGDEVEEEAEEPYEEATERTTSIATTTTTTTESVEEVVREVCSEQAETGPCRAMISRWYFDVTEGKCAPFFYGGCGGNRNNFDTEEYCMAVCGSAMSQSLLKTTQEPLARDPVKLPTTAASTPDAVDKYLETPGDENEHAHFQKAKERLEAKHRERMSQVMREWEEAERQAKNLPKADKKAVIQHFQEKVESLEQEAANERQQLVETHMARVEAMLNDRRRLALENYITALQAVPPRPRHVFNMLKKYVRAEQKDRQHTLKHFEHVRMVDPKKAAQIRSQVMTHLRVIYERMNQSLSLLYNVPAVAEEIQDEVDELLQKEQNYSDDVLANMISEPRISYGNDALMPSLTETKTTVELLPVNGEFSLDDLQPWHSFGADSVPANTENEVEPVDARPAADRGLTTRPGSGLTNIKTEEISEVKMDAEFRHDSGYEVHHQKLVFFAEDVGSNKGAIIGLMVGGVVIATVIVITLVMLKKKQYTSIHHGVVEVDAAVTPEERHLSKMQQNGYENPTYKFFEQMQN
From the text: We determined that HtrA2 could serve as a chaperone binding to APP that under cellular stress could switch from chaperone to a protease that degrades misfolded APP. AC29 cells have elevated free (membrane) cholesterol level that may cause ER stress. In AC29 cells, levels of mature form of HtrA2 were elevated in the ER and Golgi as compared to the parental CHO cells (FIG. 10). Furthermore, HtrA2 localized to the cell surface in AC29 cells but not in the parental CHO cells (FIG. 11). Also we determined that HtrA2 co-purified with APP from mammalian cells (FIG. 10) and also co-immunoprecipitated with APP. In in vitro assays, recombinant HtrA2 degraded APP.

## CCCC[C@@H](C=O)NC(=O)[C@H](CC(C)C)NC(=O)[C@H](CC(C)C)NC(C)=O [ALLN] (Ac-Leu-Leu-[Nle]-aldehyde)
APP [1]; alone, 24 hours
  steady state levels of C99: increased

## C[C@H](NC(=O)Cc1cc(F)cc(F)c1)C(=O)N[C@H](C(=O)OC(C)(C)C)c1ccccc1 [DAPT]
APP [1]; 250 nM DAPT, antibody C7
  C83 levels: increased

## CC[C@H](C)C(=O)O[C@H]1CCC=C2C=C[C@H](C)[C@H](CC[C@@H]3C[C@@H](O)CC(=O)O3)[C@H]21 [Mevastatin, mevastatin]
AC29 cells [2]
  cholesterol levels: did not induce significant changes

## CC(C)C[C@@H](C=O)NC(=O)[C@H](CC(C)C)NC(=O)[C@@H](NC(=O)OCc1ccccc1)C(C)C [Z-VLL-CHO] (Cbz-Val-Leu-Leu-aldehyde)
APP [1]; Z-VLL-CHO (0.5 mM) alone, 24 hours
  increase in steady-state levels of C470: not evident

## Cl.N [ammonium chloride]
APP [1]; ammonium chloride (NH4Cl, 10 mM)
  steady-state levels of C470: no effect; also recorded: did not affect

## CCN(CC)CCCC(C)Nc1ccnc2cc(Cl)ccc12 (stereo not shown) [chloroquine]
APP [1]
  steady-state levels of C470: no effect; also recorded: did not affect

## CC(=O)N[C@@H](CSC(=O)[C@]1([C@@H](O)C(C)C)NC(=O)[C@H](C)[C@@H]1O)C(=O)O [lactacystin]
APP [1]; lactacystin instead of ALLN, with or without Z-VLL-CHO, 24 hours
  APP-CTF levels (C99, C83, C470) compared with ALLN results: Very similar results

## methyl β-cyclodextrin [mβ-CD]
AC29 cells [3]
  Cell viability (LDH release into the media): not affected
AC29 cells [2]; mβ-CD (1 mM) alone
  FC levels: reduced, but did not normalize; also recorded: reduce but did not normalize

B1: recombinant HtrA2: serine protease containing a PDZ domain; protein with ζ cleavage activity (protein, UniProt O43464 134-458, looked up)
Serine protease HTRA2, …: AVPSPPPASPRSQYNFIADVVEKTAPAVVYIEILDRHPFLGREVPISNGSGFVVAADGLIVTNAHVVADRRRVRVRLLSGDTYEAVVTAVDPVADIATLRIQTKEPLPTLPLGRSADVRQGEFVVAMGSPFALQNTITSGIVSSAQRPARDLGLPQTNVEYIQTDAAIDFGNSGGPLVNLDGEVIGVNTMKVTAGISFAIPSDRLREFLHRGEKKNSSSGISGSQRRYIGVMMLTLSPSILAELQLREPSFPDVQHGVLIHKVILGSPAHRAGLRPGDVILAIGEQMVQNAEDVYEAVRTQSQLAVQIRRGRETLTLYVTPEVTE
APP [4]
  degradation of APP: degraded APP

— patent US20050170437A1, “Methods and compositions relating to modulating amyloid precursor protein cleavage” (The General Hospital Corporation, priority 2003, published 2005)
